pKi: −log10 of the molar value.
Target: T1, activated JNK3 (Homo sapiens, UniProt P53779)
T1 construct: One such construct encodes amino acid residues Ser40-Glu402 of JNK3α1 and is preceded by Met and Gly residues; Met-Gly (initiation Met plus Gly added to create the NcoI site) (N); made in house; host or cells: E. coli BL21 (DE3)
Assay: JNK3 inhibition, spectrophotometric coupled-enzyme assay
Type: biochemical
Details: read-out: Activity in the JNK3 Inhibition Assay (Ki rating)
Excerpt: A BLAST search of the EST database using the published JNK3α1 cDNA as a query identified an EST clone (#632588) that contained the entire coding sequence for human JNK3α1. Polymerase chain reactions (PCR) using pfu polymerase (Strategene) were used to introduce restriction sites into the cDNA for cloning into the pET-15B expression vector at the NcoI and BamHI sites. The protein was expressed in E. coli. […] This truncation corresponds to Ser 2 of JNK1 and JNK2 proteins, and is preceded by a methionine (initiation) and a glycine residue. The glycine residue was added in order to introduce an NcoI site for cloning into the expression vector. In addition, systematic C-terminal truncations were performed by PCR to identify a construct that give rise to diffraction-quality crystals.
5 mg of JNK3 was diluted to 0.5 mg/ml in 50 mM HEPES buffer, pH 7.5, containing 100 mM NaCl, 5 mM DTT, 20 mM MgCl2 and 1 mM ATP. GST-MKK7(DD) was added at a molar ratio of 1:2.5 GST-MKK7:JNK3. After incubation for 30 minutes at 25° C., the reaction mixture was concentrated 5-fold by ultrafiltration in a Centriprep-30 (Amicon, Beverly, Mass.), diluted to 10 ml and an additional 1 mM ATP added. This procedure was repeated three times to remove ADP and replenish ATP. The final addition of ATP was 5 mM and the mixture incubated overnight at 4° C.
The activated JNK3/GST-MKK7(DD) reaction mixture was exchanged into 50 mM HEPES buffer, pH 7.5, containing 5 mM DTT and 5% glycerol (w/v) by dialysis or ultrafiltration. The reaction mixture was adjusted to 1.1 M potassium phosphate, pH 7.5, and purified by hydrophobic interaction chromatography (at 25° C.) using a Rainin Hydropore column. […] Activated JNK3 (i.e. doubly phosphorylated JNK3) was stored at −70° C. at 0.25-1 mg/ml.
Compounds were assayed for the inhibition of JNK3 by a spectrophotometric coupled-enzyme assay. In this assay, a fixed concentration of activated JNK3 (10 nM) was incubated with various concentrations of a potential inhibitor dissolved in DMSO for 10 minutes at 30° C. in a buffer containing 0.1 M HEPES buffer, pH 7.5, containing 10 mM MgCl2, 2.5 mM phosphoenolpyruvate, 200 μM NADH, 150 μg/mL pyruvate kinase, 50 μg/mL lactate dehydrogenase, and 200 μM EGF receptor peptide. […] The reaction was initiated by the addition of 10 μM ATP and the assay plate is inserted into the spectrophotometer's assay plate compartment that was maintained at 30° C. The decrease of absorbance at 340 nm was monitored as a function of time. The rate data as a function of inhibitor concentration was fitted to competitive inhibition kinetic model to determine the Ki.

T1 sequence (P53779 40-402): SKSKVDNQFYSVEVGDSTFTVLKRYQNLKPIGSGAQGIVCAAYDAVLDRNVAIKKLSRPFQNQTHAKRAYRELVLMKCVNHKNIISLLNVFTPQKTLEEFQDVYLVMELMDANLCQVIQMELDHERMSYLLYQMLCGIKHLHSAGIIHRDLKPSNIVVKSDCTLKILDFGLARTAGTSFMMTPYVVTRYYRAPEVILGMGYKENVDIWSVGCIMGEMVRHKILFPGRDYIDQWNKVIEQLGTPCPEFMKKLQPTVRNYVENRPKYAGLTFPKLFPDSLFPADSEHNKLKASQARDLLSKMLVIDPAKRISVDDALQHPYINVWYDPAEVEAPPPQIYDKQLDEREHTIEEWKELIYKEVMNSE

| Compound | pKi |
| --- | --- |
| CC(=O)Nc1nccc(-c2c(-c3ccccc3)noc2C)n1 [XA-1] | 6.00 to 7.00 |
| CC(=O)Nc1nccc(-c2c(-c3ccc(F)cc3)noc2C)n1 [XA-2] | < 6.00 |
| Cc1onc(-c2ccccc2)c1-c1ccnc(NC(=O)C2CCCC2)n1 [XA-3] | 6.00 to 7.00 |
| Cc1onc(-c2ccccc2)c1-c1ccnc(NC(=O)CC(C)C)n1 [XA-4] | 6.00 to 7.00 |
| CCCC(=O)Nc1nccc(-c2c(-c3ccccc3)noc2C)n1 [XA-5] | 6.00 to 7.00 |
| OCc1onc(-c2ccc(F)cc2)c1-c1ccnc(NC2CCCCC2)n1 [XIA-45, [4-(2-Cyclohexylamino-pyrimidin-4-yl)-3-(4-fluoro-phenyl)-isoxazol-5-yl]methanol] | > 7.00 |
| OCc1onc(-c2ccc(F)cc2)c1-c1ccnc(NCCc2ccccn2)n1 [XIA-46] | > 7.00 |
| COCc1onc(-c2ccc(F)cc2)c1-c1ccnc(NC2CCCCC2)n1 [XIA-47] | > 7.00 |
| CCOCc1onc(-c2ccc(F)cc2)c1-c1ccnc(NC2CCCCC2)n1 [XIA-48] | > 7.00 |
| COCCOCc1onc(-c2ccc(F)cc2)c1-c1ccnc(NC2CCCCC2)n1 [XIA-49] | > 7.00 |
| Fc1ccc(-c2noc(COC3CCOC3)c2-c2ccnc(NC3CCCCC3)n2)cc1 (stereo not shown) [XIA-50] | > 7.00 |
| O=S1(=O)CCC(OCc2onc(-c3ccc(F)cc3)c2-c2ccnc(NC3CCCCC3)n2)C1 (stereo not shown) [XIA-51] | > 7.00 |
| Fc1ccc(-c2noc(COCc3ccccc3)c2-c2ccnc(NC3CCCCC3)n2)cc1 [XIA-52] | > 7.00 |
| Fc1ccc(-c2noc(COCc3ccccc3)c2-c2ccnc(NCCc3ccccn3)n2)cc1 [XIA-53] | > 7.00 |

Other lines, results leading:

| pKi | Compound |
| --- | --- |
| 6.00 to 7.00 | Cc1onc(-c2ccccc2F)c1-c1ccnc(NC(=O)c2ccc(F)cc2)n1 [IIIA-59] |
| 6.00 to 7.00 | Cc1ccc(C(=O)Nc2nccc(-c3c(-c4ccccc4F)noc3C)n2)cc1 [IIIA-60] |
| 6.00 to 7.00 | Cc1onc(-c2ccccc2F)c1-c1ccnc(NC(=O)c2cccc(C#N)c2)n1 [IIIA-61] |
| 6.00 to 7.00 | COc1cc(C(=O)Nc2nccc(-c3c(-c4ccccc4F)noc3C)n2)cc(OC)c1OC [IIIA-62] |
| 6.00 to 7.00 | Cc1onc(-c2ccccc2F)c1-c1ccnc(NC(=O)c2ccc3ccccc3c2)n1 [IIIA-63] |
| 6.00 to 7.00 | Cc1onc(-c2c(F)cccc2F)c1-c1ccnc(NC(=O)c2cccc(Cl)c2)n1 [IIIA-64] |
| 6.00 to 7.00 | COc1cccc(C(=O)Nc2nccc(-c3c(-c4c(F)cccc4F)noc3C)n2)c1 [IIIA-65] |
| 6.00 to 7.00 | COc1cc(OC)cc(C(=O)Nc2nccc(-c3c(-c4c(F)cccc4F)noc3C)n2)c1 [IIIA-66] |
| 6.00 to 7.00 | Cc1cccc(C(=O)Nc2nccc(-c3c(-c4c(F)cccc4F)noc3C)n2)c1 [IIIA-67] |
| 6.00 to 7.00 | COc1ccc(C(=O)Nc2nccc(-c3c(-c4c(F)cccc4F)noc3C)n2)cc1 [IIIA-68] |
| 6.00 to 7.00 | Cc1onc(-c2c(F)cccc2F)c1-c1ccnc(NC(=O)c2ccc(F)cc2)n1 [IIIA-69] |
| 6.00 to 7.00 | Cc1ccc(C(=O)Nc2nccc(-c3c(-c4c(F)cccc4F)noc3C)n2)cc1 [IIIA-70] |
| 6.00 to 7.00 | Cc1onc(-c2c(F)cccc2F)c1-c1ccnc(NC(=O)c2cccc(C#N)c2)n1 [IIIA-71] |
| 6.00 to 7.00 | COc1cc(C(=O)Nc2nccc(-c3c(-c4c(F)cccc4F)noc3C)n2)cc(OC)c1OC [IIIA-72] |
| 6.00 to 7.00 | Cc1onc(-c2c(F)cccc2F)c1-c1ccnc(NC(=O)c2ccc3ccccc3c2)n1 [IIIA-73] |
| > 7.00 | Cc1onc(-c2ccccc2)c1-c1ccnc(NC(=O)c2cccc([N+](=O)[O-])c2)n1 [IIIA-74] |
| 6.00 to 7.00 | CC(=O)Nc1cccc(C(=O)Nc2nccc(-c3c(-c4ccccc4)noc3C)n2)c1 [IIIA-75] |

Source: patent publication US6693108B2, “Inhibitors of c-JUN N terminal kinases (JNK) and other protein kinases” (Vertex Pharmaceuticals Incorporated, priority 1999, dated 2004)
